Assay results reported in patent publication US9593155B2, “Oxyntomodulin analogs” (priority 2009, dated 2017).
Like-named read-outs stand apart in the source and are kept apart here. *1 amine or outer side, *2 acyl side, *3 side chain or, on linkers, in order; H or OH if unused. Where a SMILES comes first, the peptide text is derived from it. Bridges are numbered along the chain shown (N, C = ends). Where no end group is shown, it is not given here. Side-chain parts run from the residue outwards. [ ]: non-standard residue; d: D form. The star is where a group is joined. ξ: configuration not given here. C10 = S-[42-(cholest-5-en-3-yloxy)-2,42-dioxo-6,9,12,15,18,21,24,27,30,33,36,39-dodecaoxa-3-azadotetracont-1-yl]-L-cysteine, Cys(oxa12-cholesterol), CC(C)CCC[C@@H](C)[C@H]1CC[C@H]2[C@@H]3CC=C4C[C@@H](OC(=O)CCOCCOCCOCCOCCOCCOCCOCCOCCOCCOCCOCCOCCNC(=O)CSC[C@H](N[*:1])C(=O)[*:2])CC[C@]4(C)[C@H]3CC[C@]12C; X1 = CC(C)CCCC(C)[C@H]1CCC2C3CC=C4C[C@@H](OC(=O)CCOCCOCCOCCOCCOCCOCCOCCOCCOCCOCCOCCOCCNC(=O)C*)CC[C@]4(C)C3CC[C@@]21C; CH2CO2(3ξ-cholesteryl) = CC(C)CCC[C@@H](C)[C@H]1CC[C@H]2[C@@H]3CC=C4CC(OC(=O)C*)CC[C@]4(C)[C@H]3CC[C@]12C; γGlu = O=C(O)[C@H](CCC(=O)[*:2])N[*:1]; mPEG2 40kDa = C3 = Cys(mPEG)2 40 kDa; Palmitoyl = CCCCCCCCCCCCCCCC(=O)*; Met(O) = CS(=O)CC[C@H](N)C(=O)O; Nle = CCCC[C@H](N)C(=O)O; Ac4c = NC1(C(=O)O)CCC1; Aib = CC(C)(N)C(=O)O

Key:
hGCGR = hGCGR (Homo sapiens, UniProt P47871); assay: fluorescence cell based cAMP assay, CHO cells stably expressing GCGR; details: for Receptor Selectivity: GLP-1R/GCGR, Table 6; for GCGR + 10% plasma (fold shift): EC50 with 10% plasma vs without
Chain of hGCGR (P47871 26-477): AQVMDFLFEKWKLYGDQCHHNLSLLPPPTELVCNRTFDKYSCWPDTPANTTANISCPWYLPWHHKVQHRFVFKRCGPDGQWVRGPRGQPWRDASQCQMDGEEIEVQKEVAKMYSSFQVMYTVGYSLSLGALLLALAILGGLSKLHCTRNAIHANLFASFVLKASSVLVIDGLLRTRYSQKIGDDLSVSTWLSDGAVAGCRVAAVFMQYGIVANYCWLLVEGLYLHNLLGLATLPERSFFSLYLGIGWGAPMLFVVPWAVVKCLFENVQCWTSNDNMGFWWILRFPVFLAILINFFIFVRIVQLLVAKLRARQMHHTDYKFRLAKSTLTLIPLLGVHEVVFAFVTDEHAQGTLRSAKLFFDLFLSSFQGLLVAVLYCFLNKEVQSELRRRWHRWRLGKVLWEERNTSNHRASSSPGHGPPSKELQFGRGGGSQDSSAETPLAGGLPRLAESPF
Description: We initially screened peptides in fluorescence cell based assays that measure production of cyclic-AMP (cAMP), using CHO cell lines stably expressing either recombinant human GLP-1R or human GCGR. Determination of Mouse and human GLP-1R and GCGR Agonist Activity was essentially as follows. CHO cells stably expressing mouse or human GLP-1R or GCGR were grown in Iscove's Modified Dulbecco's Medium (IMDM), 10% FBS, 1 mM L-glutamine, penicillin-streptomycin (100 μ/mL) and 750 μg G418/mL for three-four days before harvesting using Enzymefree Dissociation Media (EFDM, Specialty Media). […] The assay was terminated with the addition of the LANCE kit Detection buffer as per the manufacturer's instructions. The plates were held an additional hour at room temperature, then increasing cAMP levels were detected by a decrease in TR-FRET signal as measured in an EnVision counter (PerkinElmer) in comparison to a standard curve of cAMP as per the manufacturer's instructions. Data were analyzed using the linear and nonlinear regression analysis software, GraphPad Prism.
The in vitro potencies shown in Table 10 or Table 11 were determined from the results of assays that were similar to either the cell-based cAMP assays described herein above (Table 10) or the cell-based cAMP assays described in International Published Application No. WO2008101017, which is incorporated herein in its entirety, in particular the cell-based cAMP assays described therein (Table 11).

[1] = pI of the peptide analogs

| Molecule | pI ([1]; Table 10) | pI [1] | other results |
| --- | --- | --- | --- |
| HαQGTFTSDYC3KYLDSRRAQDFVQWLmNTKRNRNNIA-CONH2 (H[Aib]QGTFTSDYC(mPEG2 40kDa)KYLDSRRAQDFVQWL[Met(O)]NTKRNRNNIA-NH2; not fully specified; printed as HαQGTFTSDYC3KYLDSRRAQDFVQWLmNTKRNRNNIA-CONH2) [OXM121] |  |  | Receptor Selectivity (hGCGR): 0/0 |
| CCCCCCCCCCCCCCCC(=O)N[C@@H](CCC(=O)NCCCC[C@H](NC(=O)[C@H](CC(=O)O)NC(=O)[C@H](CO)NC(=O)[C@@H](NC(=O)[C@H](Cc1ccccc1)NC(=O)[C@@H](NC(=O)CNC(=O)[C@H](CCC(N)=O)NC(=O)[C@@H](CO)NC(=O)[C@@H](N)Cc1c[nH]cn1)[C@@H](C)O)[C@@H](C)O)C(=O)N[C@@H](CO)C(=O)N[C@@H](CCCCN)C(=O)N[C@@H](Cc1ccc(O)cc1)C(=O)N[C@@H](CC(C)C)C(=O)N[C@@H](CC(=O)O)C(=O)N[C@@H](CCC(=O)O)C(=O)N[C@@H](CCCNC(=N)N)C(=O)N[C@@H](CCCNC(=N)N)C(=O)N[C@@H](C)C(=O)N[C@@H](CCC(N)=O)C(=O)N[C@@H](CC(=O)O)C(=O)N[C@@H](Cc1ccccc1)C(=O)N[C@H](C(=O)N[C@@H](CCC(N)=O)C(=O)N[C@@H](Cc1c[nH]c2ccccc12)C(=O)N[C@@H](CC(C)C)C(=O)N[C@@H](CCSC)C(=O)N[C@@H](CC(N)=O)C(=O)N[C@H](C(=O)N[C@@H](CCCCN)C(=O)N[C@@H](CCC(N)=O)C(=O)O)[C@@H](C)O)C(C)C)C(=O)O [OXM414] (H-H[dS]QGTFTSDK([γGlu-Palmitoyl])SKYLDERRAQDFVQWLMNTKQ-OH; N-terminus and C-terminus assumed) | 5.4 |  |  |
| HαQGTFTSDYSC3YLDSRRAQDFVQWLmNTKRNRNNIA-CONH2 (H[Aib]QGTFTSDYSC(mPEG2 40kDa)YLDSRRAQDFVQWL[Met(O)]NTKRNRNNIA-NH2; not fully specified; printed as HαQGTFTSDYSC3YLDSRRAQDFVQWLmNTKRNRNNIA-CONH2) [OXM124] |  |  | Receptor Selectivity (hGCGR): 0/0 |
| CCCCCCCCCCCCCCCC(=O)N[C@@H](CCC(=O)N[C@@H](CCC(=O)NCCCC[C@H](NC(=O)[C@H](CC(=O)O)NC(=O)[C@H](CO)NC(=O)[C@@H](NC(=O)[C@H](Cc1ccccc1)NC(=O)[C@@H](NC(=O)CNC(=O)[C@H](CCC(N)=O)NC(=O)C1(NC(=O)[C@@H](N)Cc2c[nH]cn2)CCC1)[C@@H](C)O)[C@@H](C)O)C(=O)N[C@@H](CO)C(=O)N[C@@H](CCCCN)C(=O)N[C@@H](Cc1ccc(O)cc1)C(=O)N[C@@H](CC(C)C)C(=O)N[C@@H](CC(=O)O)C(=O)N[C@@H](CCC(=O)O)C(=O)N[C@@H](CCCNC(=N)N)C(=O)N[C@@H](CCCNC(=N)N)C(=O)N[C@@H](C)C(=O)N[C@@H](CCC(N)=O)C(=O)N[C@@H](CC(=O)O)C(=O)N[C@@H](Cc1ccccc1)C(=O)N[C@H](C(=O)N[C@@H](CCC(N)=O)C(=O)N[C@@H](Cc1c[nH]c2ccccc12)C(=O)N[C@@H](CC(C)C)C(=O)N[C@@H](CCSC)C(=O)N[C@@H](CC(N)=O)C(=O)N[C@H](C(=O)N[C@@H](CCCCN)C(N)=O)[C@@H](C)O)C(C)C)C(=O)O)C(=O)O [OXM417] (H-H[Ac4c]QGTFTSDK([γGlu-γGlu-Palmitoyl])SKYLDERRAQDFVQWLMNTK-NH2) | 5.5 |  | EC50 (hGCGR; hGCGR + 20% plasma EC50, Table 10, 20% plasma): 400 pM |
| CSCC[C@H](NC(=O)[C@H](CC(C)C)NC(=O)[C@H](Cc1c[nH]c2ccccc12)NC(=O)[C@H](CCC(N)=O)NC(=O)[C@@H](NC(=O)[C@H](Cc1ccccc1)NC(=O)[C@H](CC(=O)O)NC(=O)[C@@H]1CCCCNC(=O)CC[C@H](NC(=O)[C@H](CC(=O)O)NC(=O)[C@H](CC(C)C)NC(=O)[C@H](Cc2ccc(O)cc2)NC(=O)[C@H](CCCCN)NC(=O)[C@H](CO)NC(=O)[C@H](Cc2ccc(O)cc2)NC(=O)[C@H](CC(=O)O)NC(=O)[C@H](CO)NC(=O)[C@@H](NC(=O)[C@H](Cc2ccccc2)NC(=O)[C@@H](NC(=O)CNC(=O)[C@H](CCC(N)=O)NC(=O)[C@@H](CO)NC(=O)[C@@H](N)Cc2c[nH]cn2)[C@@H](C)O)[C@@H](C)O)C(=O)N[C@@H](CCCNC(=N)N)C(=O)N[C@@H](CCCNC(=N)N)C(=O)N[C@@H](C)C(=O)N1)C(C)C)C(=O)N[C@@H](CC(N)=O)C(=O)N[C@H](C(=O)N[C@@H](CCCCN)C(=O)N[C@@H](CCC(=O)N[C@@H](CCC(=O)N[C@@H](CSCC(=O)NCCOCCOCCOCCOCCOCCOCCOCCOCCOCCOCCOCCOCCC(=O)O[C@H]1CC[C@@]2(C)C(=CCC3C2CC[C@@]2(C)C3CC[C@@H]2C(C)CCCC(C)C)C1)C(=O)O)C(=O)O)C(=O)O)[C@@H](C)O (stereo partly drawn) [OXM392] (H-H[dS]QGTFTSDYSKYLDERRAKDFVQWLMNTK[γGlu][γGlu]C(X1)-OH; lactam 16-20) | 5.4 | about 5.4 |  |
| CC[C@H](C)[C@H](NC(=O)[C@H](CC(N)=O)NC(=O)[C@H](CC(N)=O)NC(=O)[C@H](CCCNC(=N)N)NC(=O)[C@H](CC(N)=O)NC(=O)[C@H](CCCNC(=N)N)NC(=O)[C@H](CCCCN)NC(=O)[C@@H](NC(=O)[C@H](CC(N)=O)NC(=O)[C@H](CCOC)NC(=O)[C@H](CC(C)C)NC(=O)[C@H](Cc1c[nH]c2ccccc12)NC(=O)[C@H](CCC(N)=O)NC(=O)[C@@H](NC(=O)[C@H](Cc1ccccc1)NC(=O)[C@H](CC(=O)O)NC(=O)[C@H](CCC(N)=O)NC(=O)[C@H](C)NC(=O)[C@H](CCCNC(=N)N)NC(=O)[C@H](CCCNC(=N)N)NC(=O)[C@H](CO)NC(=O)[C@H](CC(=O)O)NC(=O)[C@H](CC(C)C)NC(=O)[C@H](Cc1ccc(O)cc1)NC(=O)[C@H](CCCCN)NC(=O)[C@H](CO)NC(=O)[C@H](Cc1ccc(O)cc1)NC(=O)[C@H](CC(=O)O)NC(=O)[C@H](CO)NC(=O)[C@@H](NC(=O)[C@H](Cc1ccccc1)NC(=O)[C@@H](NC(=O)CNC(=O)[C@H](CCC(N)=O)NC(=O)C(C)(C)NC(=O)[C@@H](N)Cc1c[nH]cn1)[C@@H](C)O)[C@@H](C)O)C(C)C)[C@@H](C)O)C(=O)N[C@@H](C)C(=O)N[C@@H](CSCC(=O)OC1CC[C@@]2(C)C(=CC[C@H]3[C@@H]4CC[C@H]([C@H](C)CCCC(C)C)[C@@]4(C)CC[C@@H]32)C1)C(N)=O (stereo partly drawn) [OXM213] |  |  | GCGR + 10% plasma (fold shift) (hGCGR): (44x) fold |
| CCCC[C@H](NC(=O)[C@H](CC(C)C)NC(=O)[C@H](Cc1c[nH]c2ccccc12)NC(=O)[C@H](CCC(N)=O)NC(=O)[C@@H](NC(=O)[C@H](Cc1ccccc1)NC(=O)[C@H](CC(=O)O)NC(=O)[C@H](CCC(N)=O)NC(=O)[C@H](C)NC(=O)[C@H](CCCNC(=N)N)NC(=O)[C@H](CCCNC(=N)N)NC(=O)[C@H](CO)NC(=O)[C@H](CC(=O)O)NC(=O)[C@H](CC(C)C)NC(=O)[C@H](Cc1ccc(O)cc1)NC(=O)[C@H](CCCCN)NC(=O)[C@H](CO)NC(=O)[C@H](Cc1ccc(O)cc1)NC(=O)[C@H](CC(=O)O)NC(=O)[C@H](CO)NC(=O)[C@@H](NC(=O)[C@H](Cc1ccccc1)NC(=O)[C@@H](NC(=O)CNC(=O)[C@H](CCC(N)=O)NC(=O)C(C)(C)NC(=O)[C@@H](N)Cc1c[nH]cn1)[C@@H](C)O)[C@@H](C)O)C(C)C)C(=O)N[C@@H](CC(N)=O)C(=O)N[C@H](C(=O)N[C@@H](CCCCN)C(=O)N[C@@H](CCCNC(=N)N)C(=O)N[C@@H](CC(N)=O)C(=O)N[C@@H](CCCNC(=N)N)C(=O)N[C@@H](CC(N)=O)C(=O)N[C@@H](CC(N)=O)C(=O)N[C@H](C(=O)N[C@@H](C)C(=O)N[C@@H](CSCC(=O)OC1CC[C@@]2(C)C(=CC[C@H]3[C@@H]4CC[C@H]([C@H](C)CCCC(C)C)[C@@]4(C)CC[C@@H]32)C1)C(N)=O)[C@@H](C)CC)[C@@H](C)O (stereo partly drawn) [OXM212] (H-H[Aib]QGTFTSDYSKYLDSRRAQDFVQWL[Nle]NTKRNRNNIAC(CH2CO2(3ξ-cholesteryl))-NH2; N-terminus assumed) |  |  | GCGR + 10% plasma (fold shift) (hGCGR): (92x) fold |
| HsQGTFTSDYSSYLDSRRAQDFVQWLMNTK-γE-C4-COOH [OXM355] |  | about 5 |  |
| CCCCCCCCCCCCCCCC(=O)N[C@@H](CCC(=O)N[C@@H](CCC(=O)NCCCC[C@H](NC(=O)[C@H](CC(=O)O)NC(=O)[C@H](CO)NC(=O)[C@@H](NC(=O)[C@H](Cc1ccccc1)NC(=O)[C@@H](NC(=O)CNC(=O)[C@H](CCC(N)=O)NC(=O)C(C)(C)NC(=O)[C@@H](N)Cc1c[nH]cn1)[C@@H](C)O)[C@@H](C)O)C(=O)N[C@@H](CO)C(=O)N[C@@H](CCCCN)C(=O)N[C@@H](Cc1ccc(O)cc1)C(=O)N[C@@H](CC(C)C)C(=O)N[C@@H](CC(=O)O)C(=O)N[C@@H](CCC(=O)O)C(=O)N[C@@H](CCCNC(=N)N)C(=O)N[C@@H](CCCNC(=N)N)C(=O)N[C@@H](C)C(=O)N[C@@H](CCC(N)=O)C(=O)N[C@@H](CC(=O)O)C(=O)N[C@@H](Cc1ccccc1)C(=O)N[C@H](C(=O)N[C@@H](CCC(N)=O)C(=O)N[C@@H](Cc1c[nH]c2ccccc12)C(=O)N[C@@H](CC(C)C)C(=O)N[C@@H](CCSC)C(=O)N[C@@H](CC(N)=O)C(=O)N[C@H](C(=O)N[C@@H](CCCCN)C(N)=O)[C@@H](C)O)C(C)C)C(=O)O)C(=O)O [OXM416] (H-H[Aib]QGTFTSDK([γGlu-γGlu-Palmitoyl])SKYLDERRAQDFVQWLMNTK-NH2) | 5.5 |  |  |
| H-Acb-QGTFTSDYSKYLDERRAKDFVQWLMNTK-γE-γE-C10-COOH (lactam bridge between E and K) (H-H[Ac4c]QGTFTSDYSKYLDERRAKDFVQWLMNTK[γGlu][γGlu][C10]-OH; lactam 16-20) [OXM398] |  | about 5.4 |  |
